Laboratory results published in PMC9501810, “Bitter Peptides YFYPEL, [sequence], and [sequence], Released during Gastric Digestion of Casein, Stimulate Mechanisms of Gastric Acid Secretion via Bitter Taste Receptors TAS2R16 and TAS2R38” (Journal of Agricultural and Food Chemistry, 2022).
“And” between values parts separate entries of the source, which are not always exact repeats. Equal values may be shown once.

What was measured:
Assay type in all cases: cell-based, human
TAS2R16 = experiment: Proton secretion assay in TAS2R16 knock-down vs mock-transfected HGT-1 cells; conditions: TAS2R16kd vs mock-transfected HGT-1 cells, VAPFPEVF 17.5 µM, YFYPEL 0.03 µM, YQEPVLGPVRGPFPIIV 0.4 µM, 10 min, mean ± SEM
Protocol: The measurement of proton secretion from HGT-1 cells represents a well-established model for the identification of bitter compounds. By affecting extraoral bitter taste receptors with bitter compounds, a modulatory effect on proton secretion can be measured. For this purpose, cells were washed with KRHB and incubated with 3 μM of the intracellular pH indicator 1,5 carboxy-seminaphto-rhodafluor acetoxymethyl ester (SNARF-1-AM) under standard conditions. After 30 min, the cells were washed again with KRHB and then incubated with casein (0.01–10 μM equimolar related to the relevant forms αS1- and β-casein), hydrolysate (0.01–10 μM), or the peptides (0.01–200 μM). […] All substances were dissolved and diluted in KRHB. 1 mM histamine was used as a positive control. Measurements were performed using FlexStation 3 (Molecular Devices, USA). The excitation wavelength was 488 nm, and the emission wavelengths were 580 and 640 nm. For calibration (pH range 7.0–8.0), the intracellular and extracellular pH was adjusted with 2 μM nigericin in potassium buffer (20 mM NaCl, 110 mM KCl, 1 mM CaCl2, 1 mM MgSO4, 18 mM D-glucose, and 20 mM HEPES). The intracellular proton index (IPX) was calculated as the log2 value of the 580/640 ratio and compared with cells without treatment. Negative values represent increased secretion of protons and therefore stimulation of mechanisms regulating gastric acid secretion in HGT-1 cells. In contrast, positive values represent an inhibition of secretion compared to the untreated control.
Expression of TAS2R16 and TAS2R38 was reduced by treatment of HGT-1 cells with siRNA. 100,000 cells per well were seeded 1 day before the experiment into a 24-well plate. All reagents and siRNA were purchased from Thermo Fisher Scientific, USA (cytotoxicity was excluded by MTT). Transfection was performed with Lipofectamine RNAiMAX in Opti-Medium according to the manufacturer’s protocol. 1–50 nM of different siRNA sequences (HSS121396 and HSS181763 for TAS2R16 and HSS108754 and HSS108756 for TAS2R38) and three different incubation times (24, 48, and 72 h) were tested. Mock control experiments were performed analogously with 1 or 10 nM Stealth RNAi siRNA negative control. To verify the functionality of the transfection process, verified 10 nM siRNA targeting MAPK1 (VHS40312) was used (positive control). The transfection rate was checked by qPCR as described in section 2.11. For the proton secretion assays, 20,000 cells per well were seeded 1 day before transfection into a black 96-well plate. After 72 h of transfection, proton secretion activities of TAS2R16 knock-down or TAS2R38 knock-down HGT-1 were compared with the mock transfected cells by means of ΔIPX.

TAS2R31 = experiment: RT-qPCR gene expression of TAS2R31 in HGT-1 cells; conditions: VAPFPEVF 17.5 µM, YFYPEL 0.03 µM, YQEPVLGPVRGPFPIIV 0.4 µM, normalized to PPIA and GAPDH and untreated cells, mean, n = 3–5
Protocol: (§1) For mRNA expression analysis, 800,000 cells were seeded in a T25 cell culture flask (25 cm^2) 1 day before the experiment. After incubation with 17.5 μM […], 0.03 μM YFYPEL, or 0.4 μM […] for 15, 30, 60, and 120 min, RNA was isolated using the peqGOLD RNA Kit (VWR Peqlab, USA) following the manufacturer’s protocol. Determination of RNA concentration (A260/A280 between 2.03 and 2.09) was performed on a NanoDrop One^c (Thermo Fisher Scientific Inc., USA). RNA integrity number (RIN 9.9–10.0, version 2.6, assay class Eukaryote Total RNA Nano) was analyzed using a 2100 Bioanalyzer (Agilent Technologies, USA). Removal of gDNA and synthesis of cDNA were performed using the iScript gDNA Clear cDNA Synthesis Kit (BioRad, Feldkirchen, Germany) following the manufacturer’s protocol. Real-time-qPCR (RT-qPCR) was performed with 50 ng cDNA amplified with SsoAdvanced Universal SYBR Green Supermix (Bio-Rad Laboratories, Inc., USA). The sequences of the forward and reverse primers of the 25 TAS2Rs were taken from Liszt et al.([13]) (Supporting Information Table-SI 3). Verified primers for the TAS1Rs (TAS1R1: qHsaCID0013443; TAS1R2: qHsaCID0016106; TAS1R3: qHsaCED0002321) and for MAPK1 (qHsaCEP0050000) were obtained from Bio-Rad Laboratories. PPIA[37] and GAPDH[38] were used as reference genes. The effects of the peptides on gene expression were analyzed in comparison to untreated control cells.

TAS2R46 = experiment: RT-qPCR gene expression of TAS2R46 in HGT-1 cells; conditions: VAPFPEVF 17.5 µM, YFYPEL 0.03 µM, YQEPVLGPVRGPFPIIV 0.4 µM, normalized to PPIA and GAPDH and untreated cells, mean, n = 3–5
Protocol: as §1

TAS2R30 = experiment: RT-qPCR gene expression of TAS2R30 in HGT-1 cells; conditions: VAPFPEVF 17.5 µM, YFYPEL 0.03 µM, YQEPVLGPVRGPFPIIV 0.4 µM, normalized to PPIA and GAPDH and untreated cells, mean, n = 3–5
Protocol: as §1

TAS2R9 = experiment: RT-qPCR gene expression of TAS2R9 in HGT-1 cells; conditions: VAPFPEVF 17.5 µM, YFYPEL 0.03 µM, YQEPVLGPVRGPFPIIV 0.4 µM, normalized to PPIA and GAPDH and untreated cells, mean, n = 3–5
Protocol: as §1

TAS2R10 = experiment: RT-qPCR gene expression of TAS2R10 in HGT-1 cells; conditions: VAPFPEVF 17.5 µM, YFYPEL 0.03 µM, YQEPVLGPVRGPFPIIV 0.4 µM, normalized to PPIA and GAPDH and untreated cells, mean, n = 3–5
Protocol: as §1

TAS2R40 = experiment: RT-qPCR gene expression of TAS2R40 in HGT-1 cells; conditions: VAPFPEVF 17.5 µM, YFYPEL 0.03 µM, YQEPVLGPVRGPFPIIV 0.4 µM, normalized to PPIA and GAPDH and untreated cells, mean, n = 3–5
Protocol: as §1

TAS2R13 = experiment: RT-qPCR gene expression of TAS2R13 in HGT-1 cells; conditions: VAPFPEVF 17.5 µM, YFYPEL 0.03 µM, YQEPVLGPVRGPFPIIV 0.4 µM, normalized to PPIA and GAPDH and untreated cells, mean, n = 3–5
Protocol: as §1

TAS2R60 = experiment: RT-qPCR gene expression of TAS2R60 in HGT-1 cells; conditions: incubation 15/30/60/120 min, VAPFPEVF 17.5 µM, YFYPEL 0.03 µM, YQEPVLGPVRGPFPIIV 0.4 µM, expression not detectable with or without treatment
Protocol: as §1

TAS2R42 = experiment: RT-qPCR gene expression of TAS2R42 in HGT-1 cells; conditions: VAPFPEVF 17.5 µM, YFYPEL 0.03 µM, YQEPVLGPVRGPFPIIV 0.4 µM, normalized to PPIA and GAPDH and untreated cells, mean, n = 3–5
Protocol: as §1

Sequence: YQEPVLGPVRGPFPIIV [bitter casein peptide βA1/A2-CN193–209]
- decrease of the peptide-induced increase in proton secretion activity in TAS2R16kd cells (TAS2R16; 72 h after 10 nM siRNA): 76.6 ± 9.9%
- change of peptide-induced proton secretion, TAS2R16kd (Figure 5B–D) (TAS2R16; negative = reduction): -76.6 ±9.9%
- change in gene expression of TAS2R31 (TAS2R31; incubation 15 min): 0.86 fold change
- change in gene expression of TAS2R31 (TAS2R31; incubation 30 min): 1.43 fold change
- change in gene expression of TAS2R31 (TAS2R31; incubation 60 min): 1.33 fold change
- change in gene expression of TAS2R31 (TAS2R31; incubation 120 min): 0.99 fold change
- change in gene expression of TAS2R46 (TAS2R46; incubation 15 min): 0.69 fold change
- change in gene expression of TAS2R46 (TAS2R46; incubation 30 min): 1.73 fold change
- change in gene expression of TAS2R46 (TAS2R46; incubation 60 min): 1.30 fold change
- change in gene expression of TAS2R46 (TAS2R46; incubation 120 min): 1.06 fold change
- change in gene expression of TAS2R30 (TAS2R30; incubation 15 min): 0.74 fold change
- change in gene expression of TAS2R30 (TAS2R30; incubation 30 min): 1.88 fold change
- change in gene expression of TAS2R30 (TAS2R30; incubation 60 min): 1.20 fold change
- change in gene expression of TAS2R30 (TAS2R30; incubation 120 min): 0.89 fold change
- change in gene expression of TAS2R9 (TAS2R9; incubation 15 min): 0.43 fold change
- change in gene expression of TAS2R9 (TAS2R9; incubation 30 min): 0.44 fold change
- change in gene expression of TAS2R9 (TAS2R9; incubation 60 min): 1.91 fold change
- change in gene expression of TAS2R9 (TAS2R9; incubation 120 min): 0.73 fold change
- change in gene expression of TAS2R10 (TAS2R10; incubation 15 min): 0.52 fold change and 0.52 ± 0.06 fold change
- change in gene expression of TAS2R10 (TAS2R10; incubation 30 min): 0.78 fold change
- change in gene expression of TAS2R10 (TAS2R10; incubation 60 min): 0.90 fold change
- change in gene expression of TAS2R10 (TAS2R10; incubation 120 min): 1.04 fold change
- change in gene expression of TAS2R40 (TAS2R40; incubation 15 min): 0.92 fold change
- change in gene expression of TAS2R40 (TAS2R40; incubation 30 min): 1.78 fold change
- change in gene expression of TAS2R40 (TAS2R40; incubation 60 min): 0.96 fold change
- change in gene expression of TAS2R40 (TAS2R40; incubation 120 min): 0.86 fold change
- change in gene expression of TAS2R13 (TAS2R13; incubation 15 min): 0.70 fold change
- change in gene expression of TAS2R13 (TAS2R13; incubation 30 min): 1.65 fold change
- change in gene expression of TAS2R13 (TAS2R13; incubation 60 min): 1.16 fold change
- change in gene expression of TAS2R13 (TAS2R13; incubation 120 min): 1.31 fold change
- change in gene expression of TAS2R60 (TAS2R60): not detected
- change in gene expression of TAS2R42 (TAS2R42; incubation 15 min): 0.62 fold change
- change in gene expression of TAS2R42 (TAS2R42; incubation 30 min): 1.38 fold change
- change in gene expression of TAS2R42 (TAS2R42; incubation 60 min): 1.18 fold change
- change in gene expression of TAS2R42 (TAS2R42; incubation 120 min): 0.94 fold change
